Test results taken from US10266537B2, “3-acetylenyl-pyrazole-pyrimidine derivative, and preparation method therefor and uses thereof” (Si Chuan University, priority 2015, dated 2019).
Like-named read-outs stand apart in the source and are kept apart here. Blank lines part the entries; values can stand above or below the compound they belong to.

Key:
[1] = test system: MDA-MB-468; test: Cell proliferation inhibition assay (MTT); format: cell-based; settings: Homo sapiens, read-out: Proliferation inhibitory activity IC50
[2] = target: TrkA (Homo sapiens (Human), UniProt P04629); test: Kinase inhibition assay (KinaseProfiler, 33P-ATP); format: biochemical; settings: TrkA(h), read-out: The percentage of the remaining active protein
[3] = target: EphA8(h) (Homo sapiens (Human), UniProt P29322); test: Kinase inhibition assay (KinaseProfiler, 33P-ATP); format: biochemical; settings: read-out: The percentage of the remaining active protein
[4] = target: PI3 Kinase a(h) (Homo sapiens (Human), UniProt P42336); test: Kinase inhibition assay (KinaseProfiler, 33P-ATP); format: biochemical; settings: read-out: The percentage of the remaining active protein
[5] = test system: breast cancer cell line MDA-MB-231; format: in vivo
[6] = target: FAK(h) (Homo sapiens (Human), UniProt Q05397); test: Kinase inhibition assay (KinaseProfiler, 33P-ATP); format: biochemical; settings: read-out: The percentage of the remaining active protein
[7] = target: ALK(h) (Homo sapiens (Human), UniProt Q9UM73); test: Kinase inhibition assay (KinaseProfiler, 33P-ATP); format: biochemical; settings: read-out: The percentage of the remaining active protein
[8] = target: IKKβ (Homo sapiens (Human), UniProt O14920); test: Kinase inhibition assay (KinaseProfiler, 33P-ATP); format: biochemical; settings: for remaining activity at 10 µM: IKKβ(h), read-out: The percentage of the remaining active protein
[9] = target: ARK5(h) (Homo sapiens (Human), UniProt O60285); test: Kinase inhibition assay (KinaseProfiler, 33P-ATP); format: biochemical; settings: read-out: The percentage of the remaining active protein
[10] = target: B-Raf (Homo sapiens (Human), UniProt P15056); test: Kinase inhibition assay (KinaseProfiler, 33P-ATP); settings: for IC50: B-Raf, ATP at Km; for remaining activity at 10 µM: read-out: The percentage of the remaining active protein
[11] = target: PKA(h) (Homo sapiens (Human), UniProt P17612); test: Kinase inhibition assay (KinaseProfiler, 33P-ATP); format: biochemical; settings: read-out: The percentage of the remaining active protein
[12] = target: Bmx (Homo sapiens (Human), UniProt P51813); test: Kinase inhibition assay (KinaseProfiler, 33P-ATP); settings: for remaining activity at 10 µM: read-out: The percentage of the remaining active protein
[13] = target: Axl (Homo sapiens (Human), UniProt P30530); test: Kinase inhibition assay (KinaseProfiler, 33P-ATP); format: biochemical; settings: for remaining activity at 10 µM: Axl(h), read-out: The percentage of the remaining active protein
[14] = test system: Miapaca-2; test: Cell proliferation inhibition assay (MTT); format: cell-based; settings: Homo sapiens, read-out: Proliferation inhibitory activity IC50
[15] = target: CDK7 (Homo sapiens (Human), UniProt P50613); test: Kinase inhibition assay (KinaseProfiler, 33P-ATP); format: biochemical; settings: read-out: The percentage of the remaining active protein
[16] = target: EphB4 (Homo sapiens (Human), UniProt P54760); test: Kinase inhibition assay (KinaseProfiler, 33P-ATP); format: biochemical; settings: for IC50: EphB4, ATP at Km
[17] = test system: HCT116; test: Cell proliferation inhibition assay (MTT); format: cell-based; settings: Homo sapiens, read-out: Proliferation inhibitory activity IC50
[18] = target: Lyn (Homo sapiens (Human), UniProt P07948); test: Kinase inhibition assay (KinaseProfiler, 33P-ATP); format: biochemical; settings: for remaining activity at 10 µM: Lyn(h), read-out: The percentage of the remaining active protein
[19] = test system: SW1990; test: Cell proliferation inhibition assay (MTT); format: cell-based; settings: Homo sapiens, read-out: Proliferation inhibitory activity IC50
[20] = target: Fms(h) (Homo sapiens (Human), UniProt P07333); test: Kinase inhibition assay (KinaseProfiler, 33P-ATP); format: biochemical; settings: read-out: The percentage of the remaining active protein
[21] = test system: MDA-MB-435; test: Cell proliferation inhibition assay (MTT); format: cell-based, human
[22] = target: c-Src(T341M) (Homo sapiens (Human), UniProt P12931, T341M); test: Kinase inhibition assay (KinaseProfiler, 33P-ATP); format: biochemical; settings: for IC50: c-Src(T341M), ATP at Km
[23] = target: FGFR1 (Homo sapiens (Human), UniProt P11362); test: Kinase inhibition assay (KinaseProfiler, 33P-ATP); format: biochemical; settings: for remaining activity at 10 µM: FGFR1(h), read-out: The percentage of the remaining active protein
[24] = target: Blk (Homo sapiens (Human), UniProt P51451); test: Kinase inhibition assay (KinaseProfiler, 33P-ATP); format: biochemical; settings: for IC50: Blk, ATP at Km; for remaining activity at 10 µM: Blk(h), read-out: The percentage of the remaining active protein
[25] = target: Btk (Homo sapiens (Human), UniProt Q06187); test: Kinase inhibition assay (KinaseProfiler, 33P-ATP); format: biochemical; settings: for remaining activity at 10 µM: BTK(h), read-out: The percentage of the remaining active protein; for IC50: Btk, ATP at Km
[26] = test system: MV4-11; test: Cell proliferation inhibition assay (MTT); format: cell-based; settings: Homo sapiens, read-out: Proliferation inhibitory activity IC50
[27] = test system: RAMOS; test: Cell proliferation inhibition assay (MTT); format: cell-based; settings: Homo sapiens, read-out: Proliferation inhibitory activity IC50
[28] = target: mTOR(h) (Homo sapiens (Human), UniProt P42345); test: Kinase inhibition assay (KinaseProfiler, 33P-ATP); format: biochemical; settings: read-out: The percentage of the remaining active protein
[29] = target: PDGFRα (Homo sapiens (Human), UniProt P16234); test: Kinase inhibition assay (KinaseProfiler, 33P-ATP); format: biochemical; settings: for remaining activity at 10 µM: PDGFRα(h), read-out: The percentage of the remaining active protein; for IC50: PDGFRα, ATP at Km
[30] = target: EphA1(h) (Homo sapiens (Human), UniProt P21709); test: Kinase inhibition assay (KinaseProfiler, 33P-ATP); format: biochemical; settings: read-out: The percentage of the remaining active protein
[31] = PI3 Kinase a(h), compound at 10 μM
[32] = MDA-MB-231 subcutaneous tumor, nude mice, 20 mg/kg per day, oral
[33] = MDA-MB-231 subcutaneous tumor, nude mice, vs paclitaxel 10 mg/kg per week tail vein, dasatinib 40 mg/kg daily oral
[34] = MIA PaCa-2, Miapaca-2, MTT, 72 hours
[35] = Homo sapiens, MDA-MB-435, MTT, 72 hours, read-out: Proliferative inhibitory activity MDA-MB-435 (IC50 class)

Lyn, sequence (P07948 whole entry): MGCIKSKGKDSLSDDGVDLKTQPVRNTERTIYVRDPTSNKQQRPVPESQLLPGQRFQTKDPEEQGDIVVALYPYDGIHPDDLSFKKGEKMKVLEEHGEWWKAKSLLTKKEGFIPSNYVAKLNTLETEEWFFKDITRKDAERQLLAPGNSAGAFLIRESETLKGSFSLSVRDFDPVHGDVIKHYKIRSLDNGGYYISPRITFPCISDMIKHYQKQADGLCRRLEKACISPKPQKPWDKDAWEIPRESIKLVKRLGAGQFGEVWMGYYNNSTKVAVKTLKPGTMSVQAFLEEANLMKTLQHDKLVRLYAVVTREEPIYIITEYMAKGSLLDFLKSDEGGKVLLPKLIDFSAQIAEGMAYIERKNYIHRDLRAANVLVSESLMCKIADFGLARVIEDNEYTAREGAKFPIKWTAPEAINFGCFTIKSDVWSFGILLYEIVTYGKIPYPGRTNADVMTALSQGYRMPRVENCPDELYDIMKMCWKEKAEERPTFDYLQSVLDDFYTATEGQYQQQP
TrkA, sequence (P04629 33-796): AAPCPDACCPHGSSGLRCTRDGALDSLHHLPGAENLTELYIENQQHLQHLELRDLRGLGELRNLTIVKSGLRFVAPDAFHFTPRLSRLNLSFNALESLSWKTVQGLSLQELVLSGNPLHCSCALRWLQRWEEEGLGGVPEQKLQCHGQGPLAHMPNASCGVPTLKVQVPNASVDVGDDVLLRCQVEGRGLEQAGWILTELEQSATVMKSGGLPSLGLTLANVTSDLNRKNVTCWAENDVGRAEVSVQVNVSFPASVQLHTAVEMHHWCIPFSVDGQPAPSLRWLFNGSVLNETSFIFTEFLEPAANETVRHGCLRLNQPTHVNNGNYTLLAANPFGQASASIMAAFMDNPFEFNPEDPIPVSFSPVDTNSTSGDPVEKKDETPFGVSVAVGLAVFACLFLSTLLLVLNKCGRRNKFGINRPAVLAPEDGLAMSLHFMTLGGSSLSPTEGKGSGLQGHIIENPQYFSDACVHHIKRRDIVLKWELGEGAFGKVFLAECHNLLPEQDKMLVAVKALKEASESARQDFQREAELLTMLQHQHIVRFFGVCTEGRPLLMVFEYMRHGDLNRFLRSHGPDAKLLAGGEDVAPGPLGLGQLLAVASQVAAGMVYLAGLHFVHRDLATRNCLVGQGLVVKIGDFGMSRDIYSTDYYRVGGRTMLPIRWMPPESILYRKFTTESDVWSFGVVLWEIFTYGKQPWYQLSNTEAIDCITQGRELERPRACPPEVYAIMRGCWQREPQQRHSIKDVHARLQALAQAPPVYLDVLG
ARK5(h), sequence (O60285 whole entry): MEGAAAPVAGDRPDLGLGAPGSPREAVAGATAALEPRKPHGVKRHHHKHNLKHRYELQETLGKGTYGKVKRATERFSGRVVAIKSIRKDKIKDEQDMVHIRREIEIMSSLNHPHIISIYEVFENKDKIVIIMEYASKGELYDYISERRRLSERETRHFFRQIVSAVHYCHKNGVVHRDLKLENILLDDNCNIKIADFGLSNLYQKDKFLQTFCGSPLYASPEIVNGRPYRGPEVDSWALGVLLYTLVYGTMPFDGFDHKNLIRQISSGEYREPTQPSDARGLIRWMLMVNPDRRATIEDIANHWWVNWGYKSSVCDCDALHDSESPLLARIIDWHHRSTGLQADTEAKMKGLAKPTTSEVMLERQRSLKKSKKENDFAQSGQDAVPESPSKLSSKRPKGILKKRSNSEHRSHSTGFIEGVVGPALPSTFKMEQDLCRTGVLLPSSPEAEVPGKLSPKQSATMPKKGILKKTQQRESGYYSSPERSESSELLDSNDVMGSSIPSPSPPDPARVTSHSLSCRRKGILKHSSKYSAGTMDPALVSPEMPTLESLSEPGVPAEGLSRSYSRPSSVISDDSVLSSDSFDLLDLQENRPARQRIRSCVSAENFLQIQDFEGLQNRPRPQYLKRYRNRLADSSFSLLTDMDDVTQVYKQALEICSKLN
Blk, sequence (P51451 whole entry): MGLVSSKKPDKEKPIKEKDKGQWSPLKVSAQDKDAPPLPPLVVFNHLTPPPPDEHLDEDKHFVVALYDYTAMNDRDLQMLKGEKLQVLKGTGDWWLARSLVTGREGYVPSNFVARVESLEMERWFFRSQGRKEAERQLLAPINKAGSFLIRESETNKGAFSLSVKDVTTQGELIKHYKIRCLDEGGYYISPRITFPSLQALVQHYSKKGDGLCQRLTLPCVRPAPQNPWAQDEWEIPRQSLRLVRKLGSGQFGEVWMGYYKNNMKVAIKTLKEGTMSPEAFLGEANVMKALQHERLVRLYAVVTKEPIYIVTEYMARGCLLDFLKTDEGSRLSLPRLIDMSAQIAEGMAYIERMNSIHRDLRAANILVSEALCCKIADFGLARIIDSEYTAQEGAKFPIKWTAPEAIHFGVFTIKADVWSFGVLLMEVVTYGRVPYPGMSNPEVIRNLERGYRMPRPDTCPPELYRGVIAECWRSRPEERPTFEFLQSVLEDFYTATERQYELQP
EphB4, sequence (P54760 16-987): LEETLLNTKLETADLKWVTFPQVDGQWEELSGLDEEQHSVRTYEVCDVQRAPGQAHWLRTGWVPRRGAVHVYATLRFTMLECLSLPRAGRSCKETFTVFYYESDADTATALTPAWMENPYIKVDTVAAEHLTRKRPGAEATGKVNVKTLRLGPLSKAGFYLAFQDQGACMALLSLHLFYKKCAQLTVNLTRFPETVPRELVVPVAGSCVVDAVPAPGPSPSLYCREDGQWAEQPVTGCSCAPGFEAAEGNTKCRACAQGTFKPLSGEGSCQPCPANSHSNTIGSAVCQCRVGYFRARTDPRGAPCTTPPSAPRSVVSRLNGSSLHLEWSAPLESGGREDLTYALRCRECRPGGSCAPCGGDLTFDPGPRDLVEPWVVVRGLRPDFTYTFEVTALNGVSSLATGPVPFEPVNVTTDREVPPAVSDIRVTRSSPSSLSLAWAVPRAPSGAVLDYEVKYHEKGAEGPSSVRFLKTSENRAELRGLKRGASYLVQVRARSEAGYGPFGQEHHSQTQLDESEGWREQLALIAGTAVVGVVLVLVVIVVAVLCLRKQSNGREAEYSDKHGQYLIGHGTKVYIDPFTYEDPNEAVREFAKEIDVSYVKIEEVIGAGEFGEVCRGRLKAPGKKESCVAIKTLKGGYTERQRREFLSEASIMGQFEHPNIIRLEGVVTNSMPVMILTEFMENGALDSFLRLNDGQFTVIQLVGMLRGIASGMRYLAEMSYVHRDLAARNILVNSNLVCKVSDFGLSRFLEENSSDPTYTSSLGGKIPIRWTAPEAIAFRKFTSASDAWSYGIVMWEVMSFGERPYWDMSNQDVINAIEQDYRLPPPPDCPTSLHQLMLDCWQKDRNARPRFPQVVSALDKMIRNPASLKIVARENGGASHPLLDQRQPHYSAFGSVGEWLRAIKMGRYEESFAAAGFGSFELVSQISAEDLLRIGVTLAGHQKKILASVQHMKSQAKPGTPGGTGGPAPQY
CDK7, sequence (P50613 whole entry): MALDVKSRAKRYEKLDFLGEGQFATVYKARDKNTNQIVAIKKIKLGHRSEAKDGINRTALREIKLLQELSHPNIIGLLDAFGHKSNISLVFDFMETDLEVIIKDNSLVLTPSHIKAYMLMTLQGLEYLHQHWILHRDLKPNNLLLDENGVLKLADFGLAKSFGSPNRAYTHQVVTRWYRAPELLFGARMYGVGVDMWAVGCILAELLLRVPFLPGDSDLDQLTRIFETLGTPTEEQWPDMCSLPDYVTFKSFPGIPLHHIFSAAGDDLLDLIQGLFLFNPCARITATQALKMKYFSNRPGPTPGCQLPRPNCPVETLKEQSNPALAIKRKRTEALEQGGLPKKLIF
CDK7, sequence (P51946 whole entry partner): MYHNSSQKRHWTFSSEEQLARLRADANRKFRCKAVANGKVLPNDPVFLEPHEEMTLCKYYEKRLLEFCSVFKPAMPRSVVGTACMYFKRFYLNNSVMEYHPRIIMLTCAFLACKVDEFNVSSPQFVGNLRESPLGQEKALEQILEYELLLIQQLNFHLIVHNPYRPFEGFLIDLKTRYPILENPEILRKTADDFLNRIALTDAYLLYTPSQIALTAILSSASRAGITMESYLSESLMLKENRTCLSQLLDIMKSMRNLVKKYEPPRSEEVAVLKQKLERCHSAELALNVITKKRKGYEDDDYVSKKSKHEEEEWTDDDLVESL
CDK7, sequence (P51948 whole entry partner): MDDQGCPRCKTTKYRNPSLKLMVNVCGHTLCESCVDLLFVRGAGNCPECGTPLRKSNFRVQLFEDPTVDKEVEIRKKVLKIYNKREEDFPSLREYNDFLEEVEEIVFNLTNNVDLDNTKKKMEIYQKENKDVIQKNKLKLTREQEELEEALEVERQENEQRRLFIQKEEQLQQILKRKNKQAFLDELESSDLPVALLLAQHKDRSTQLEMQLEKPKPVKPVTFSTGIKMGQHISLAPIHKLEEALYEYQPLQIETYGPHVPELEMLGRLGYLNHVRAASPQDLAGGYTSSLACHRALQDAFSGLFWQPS
c-Src(T341M), sequence (P12931 whole entry T341M, looked up): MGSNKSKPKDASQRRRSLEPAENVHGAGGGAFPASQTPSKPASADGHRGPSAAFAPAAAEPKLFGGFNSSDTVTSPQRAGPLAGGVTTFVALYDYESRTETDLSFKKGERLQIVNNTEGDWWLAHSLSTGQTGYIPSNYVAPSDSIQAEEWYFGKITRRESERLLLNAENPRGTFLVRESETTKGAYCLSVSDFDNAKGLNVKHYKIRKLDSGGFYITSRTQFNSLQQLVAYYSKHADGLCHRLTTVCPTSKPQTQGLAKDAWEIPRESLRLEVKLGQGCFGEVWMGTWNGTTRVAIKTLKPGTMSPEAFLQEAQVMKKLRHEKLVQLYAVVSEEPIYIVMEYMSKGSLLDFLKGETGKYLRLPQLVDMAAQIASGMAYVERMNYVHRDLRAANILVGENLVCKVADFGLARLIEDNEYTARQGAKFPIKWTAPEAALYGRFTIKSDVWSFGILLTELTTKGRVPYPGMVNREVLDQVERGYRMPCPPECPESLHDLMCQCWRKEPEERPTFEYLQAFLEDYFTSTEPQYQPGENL

SMILES: CCn1nc(C#Cc2cc(C(=O)Nc3ccc(CN4CCN(C)CC4)c(C(F)(F)F)c3)ccc2C)c2c(N)ncnc21 [Compound 3]
IC50 ([1]; MDA-MB-468, 72 h): 4480 nM
remaining activity at 10 µM ([2]; compound at 10 μM): -2%
remaining activity at 10 µM ([3]; compound at 10 μM): -5%
remaining activity at 10 µM [4, 31]: 93%
inhibitory effect compared to positive control ([5]; mouse, in vivo): better than the positive control (paclitaxel)
tumor growth inhibition ([5]; mouse, in vivo): significantly inhibited
remaining activity at 10 µM ([6]; compound at 10 μM): 43%
remaining activity at 10 µM ([7]; compound at 10 μM): 27%
IC50 ([8]; IKKβ, ATP at Km): 164 nM
remaining activity at 10 µM ([9]; compound at 10 μM): 105%
IC50 [10]: 92 nM
remaining activity at 10 µM [10]: 5%
remaining activity at 10 µM ([11]; compound at 10 μM): 17%
IC50 [12]: 6 nM
remaining activity at 10 µM [12]: 0%
remaining activity at 10 µM ([13]; compound at 10 μM): -4%
IC50 ([13]; Axl, ATP at Km): 578 nM
IC50 ([14]; MIA PaCa-2, 72 h): 12.8 nM
remaining activity at 10 µM ([15]; CDK7, compound at 10 μM): 70%
IC50 [16]: 23 nM
IC50 ([17]; HCT-116, 72 h): 178 nM
remaining activity at 10 µM ([18]; compound at 10 μM): 0%
IC50 ([19]; SW1990, 72 h): 356 nM
remaining activity at 10 µM ([20]; compound at 10 μM): 0%
IC50 ([21]; Homo sapiens, MDA-MB-435, 72 h, read-out: Proliferation inhibitory activity IC50): 8.65 nM
IC50 ([21]; read-out: Proliferative inhibitory activity MDA-MB-435 (IC50 class)): < 100 nM
IC50 [22]: 30 nM
IC50 ([23]; FGFR1, ATP at Km): 3 nM
IC50 [24]: 19 nM
remaining activity at 10 µM ([25]; compound at 10 μM): -3%
IC50 [25]: 67 nM
IC50 ([26]; MV4-11, 72 h): 20 nM
IC50 ([27]; Ramos, 72 h): ~10000 nM
remaining activity at 10 µM ([28]; compound at 10 μM): 96%
remaining activity at 10 µM ([29]; compound at 10 μM): 5%
IC50 [29]: 890 nM

IC50 ([1]; MDA-MB-468, MTT, 72 hours): 3220 nM
remaining activity at 10 µM ([2]; compound at 10 μM): 14%
remaining activity at 10 µM ([3]; compound at 10 μM): -4%
remaining activity at 10 µM [4, 31]: 98%
remaining activity at 10 µM ([6]; compound at 10 μM): 26%
remaining activity at 10 µM ([7]; compound at 10 μM): 33%
remaining activity at 10 µM ([8]; compound at 10 μM): 42%
remaining activity at 10 µM ([9]; compound at 10 μM): 115%
IC50 [10]: 22 nM
remaining activity at 10 µM [10]: 1%
remaining activity at 10 µM ([11]; compound at 10 μM): 58%
IC50 [12]: 18 nM
remaining activity at 10 µM [12]: 0%
remaining activity at 10 µM ([13]; compound at 10 μM): 15%
IC50 [14, 34]: 40.4 nM
remaining activity at 10 µM ([15]; CDK7, compound at 10 μM): 70%
IC50 [16]: 11 nM
IC50 ([17]; HCT-116, HCT116, MTT, 72 hours): 230 nM
remaining activity at 10 µM ([18]; compound at 10 μM): 0%
remaining activity at 10 µM ([30]; compound at 10 μM): 1%
IC50 ([19]; SW1990, MTT, 72 hours): 206 nM
remaining activity at 10 µM ([20]; compound at 10 μM): 1%
IC50 ([21]; Homo sapiens, MDA-MB-435, MTT, 72 hours, read-out: Proliferation inhibitory activity IC50): 14.7 nM
IC50 [21, 35]: < 100 nM
IC50 [22]: 3730 nM
remaining activity at 10 µM ([23]; compound at 10 μM): 0%
remaining activity at 10 µM ([24]; compound at 10 μM): -1%
IC50 [24]: 12 nM
remaining activity at 10 µM ([25]; compound at 10 μM): -3%
IC50 [25]: 127 nM
remaining activity at 10 µM ([28]; compound at 10 μM): 81%
remaining activity at 10 µM ([29]; compound at 10 μM): 3%
IC50 [29]: 396 nM
SMILES: Cc1ccc(NC(=O)c2cccc(C(F)(F)F)c2)cc1C#Cc1nn(C2CCN(C)CC2)c2ncnc(N)c12 [Compound 31]
tumor growth inhibition [5, 32]: significantly inhibit tumor growth
inhibitory effect compared to positive control [5, 33]: superior inhibitory effect compared to positive control (paclitaxel and dasatinib)
toxicity / side effects (weight loss, rash, diarrhea) during administration ([5]; nude mice, test dose range, daily oral): low toxicity

remaining activity at 10 µM ([2]; 10 μM): 72%
remaining activity at 10 µM ([3]; 10 μM): 2%
remaining activity at 10 µM ([4]; PI3 Kinase (p110a/p85a)(h), 10 μM): 79%
remaining activity at 10 µM ([6]; 10 μM): 45%
remaining activity at 10 µM ([7]; 10 μM): 92%
remaining activity at 10 µM ([8]; 10 μM): 33%
remaining activity at 10 µM ([9]; 10 μM): 108%
remaining activity at 10 µM [10]: 7%
remaining activity at 10 µM ([11]; 10 μM): 60%
IC50 ([12]; Bmx, ATP at Km): 21 nM
remaining activity at 10 µM [12]: -1%
remaining activity at 10 µM ([13]; 10 μM): 56%
IC50 [14, 34]: < 600 nM
remaining activity at 10 µM ([15]; CDK7/cyclinH/MAT1(h), 10 μM): 103%
remaining activity at 10 µM ([16]; EphB4(h), 10 μM, read-out: The percentage of the remaining active protein): 1%
remaining activity at 10 µM ([18]; 10 μM): 0%
IC50 ([18]; Lyn, ATP at Km): 4 nM
remaining activity at 10 µM ([30]; 10 μM): 1%
remaining activity at 10 µM ([20]; 10 μM): 4%
IC50 [21, 35]: < 100 nM
remaining activity at 10 µM ([22]; Src(T341M)(h), 10 μM, read-out: The percentage of the remaining active protein): 20%
remaining activity at 10 µM ([23]; 10 μM): 1%
remaining activity at 10 µM ([24]; 10 μM): 0%
remaining activity at 10 µM ([25]; 10 μM): 10%
IC50 ([26]; MV4-11, MTT, 72 hours): 138 nM
IC50 ([27]; RAMOS, MTT, 72 hours): ~10000 nM
remaining activity at 10 µM ([28]; 10 μM): 101%
remaining activity at 10 µM ([29]; 10 μM): 60%
SMILES: Cc1ccc(NC(=O)c2ccc(C)c(C(F)(F)F)c2)cc1C#Cc1nn([C@H]2CC[C@H](O)CC2)c2ncnc(N)c12 [Compound 93]
tumor growth inhibition [5, 32]: significantly inhibit tumor growth
inhibitory effect compared to positive control [5, 33]: superior inhibitory effect compared to the positive control (paclitaxel)
